# Experimental data from paper PMC10221314 (Pharmaceuticals, 2023).
# Several values for one entry are separate records, joined by “and”; a condition that tells them apart may be missing. Equal entries are not always repeated. Entries after “also recorded” stand apart in the source; their conditions may differ.
# Experiments:
# LX-2 cells = test: mRNA expression of liver fibrosis marker genes in TGFβ1-induced LX-2 cells; format: cell-based; details: 10 μM, induced by 2 ng·mL^−1 TGFβ1, 24 h
# Method: (§1) Cells and liver tissue samples were subjected to RNA extraction and purification, followed by reverse transcription of equal amounts of total RNA into […] using a Transcriptor First Strand cDNA Synthesis Kit (Roche). The relative expression levels of the target gene were determined using TaqMan probe/primers with an ABI Q3 quantitative real-time PCR system, while GAPDH/Gapdh was utilized as an internal control for mRNA expression. The fold change in the expression of the target mRNA was calculated using Equation 2^−ΔΔCt.
# (A–E) The LX-2 cells underwent a 24 h treatment of 2 ng·mL^−1 TGFβ1, with or without varying concentrations of candidate compounds, following FBS starvation. […] GAPDH/GAPDH was used as the loading control. The mean ± SD values were obtained from three independent assays. […] ANOVA was followed by Tukey’s test for statistical analysis.
# [1] = set-up: method as in PMID 34970143; details: 120 mg·Kg^−1; cited from earlier work
# FXR downstream genes [2] = test: mRNA expression of FXR downstream genes in HepG2 cells (qRT-PCR); format: cell-based; details: 50 μM, 24 h
# Method: as §1
# (A) Relative mRNA level of SHP; (B) Relative mRNA level of BSEP; (C) Relative mRNA level of CYP7A1; (D) Relative mRNA level of SREBP1c; (E) Relative mRNA level of PEPCK; (F) Expression level of G6Pase. HepG2 cells were seeded in a 6-well plate and treated with DMSO and varying concentrations of compound 10b for 24 h with or without 50 μM of 1. The mRNA levels of SHP, BSEP, CYP7A1, SREBP1c, PEPCK, and G6Pase were quantified and normalized to β-actin expression.
# [3] = test system: RXRα, RXRβ, RXRγ, LXRα, LXRβ, PXR, PPARα, PPARβ, PPARγ, and GPBAR; test: NR selectivity one-hybrid assay in HEK-293T cells (panel of metabolic NRs); format: cell-based; details: with corresponding agonists
# Method: To assess the compound’s specificity, the mammalian one-hybrid assay was conducted. In this assay, HEK-293T cells were co-transfected with a fusion plasmid of Gal4 DBD-NR LBD (comprising RXRα, RXRβ, RXRγ, PPARα, PPARβ, PPARγ, LXRα, LXRβ, GPBAR, and PXR) and the UAS-TK-Luc reporter, followed by treatment with various concentrations of the compound. The positive control consisted of the corresponding nuclear receptor agonist, and the concentration used in the experiment was set to the EC50 of the agonist.
# Figure 3 Compound 10b selectively antagonized FXR. The impact of compound 10b on various NRs was evaluated using a […] one-hybrid assay in HEK-293T cells. The cells were transiently co-transfected with a fusion plasmid of Gal4 DBD-NR-LBD, which included PPARα, PPARβ, PPARγ, RXRα, RXRβ, RXRγ, LXRα, LXRβ, GPBAR, PXR, and FXR, in combination with the UAS-TK-Luc reporter. […] The values are expressed as the means ± SE of three independent experiments. *: p < 0.05 vs. RA (relative agonist).
# FXR downstream genes [4] = details: previous study; cited from earlier work
# FXR = biological target: T1, FXR (Homo sapiens, UniProt Q96RI1); test: Yeast one-hybrid assay of FXR antagonistic activity in HEK-293T cells; format: cell-based; details: HEK-293T cells; CDCA (50 μM) as agonist; mean ± SE of three independent tests
# T1 construct: a fusion plasmid of Gal4 DBD-NR-LBD, which included PPARα, PPARβ, PPARγ, RXRα, RXRβ, RXRγ, LXRα, LXRβ, GPBAR, PXR, and FXR; expressed in transfected cells; host or cells: HEK-293T
# T1 sequence (Q96RI1 262-486 limits assumed): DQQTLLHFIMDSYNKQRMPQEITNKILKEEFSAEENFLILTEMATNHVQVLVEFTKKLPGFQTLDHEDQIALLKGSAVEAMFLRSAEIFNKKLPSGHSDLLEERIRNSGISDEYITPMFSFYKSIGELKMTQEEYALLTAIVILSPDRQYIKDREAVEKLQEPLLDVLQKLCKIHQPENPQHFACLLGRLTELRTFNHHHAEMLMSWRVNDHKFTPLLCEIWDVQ
# Method: Cell counting: HEK-293T cells in logarithmic growth phase were digested with 0.25% trypsin, collected, and centrifuged. The trypsin-containing medium was discarded, and 2 mL of fresh phenol red-free DMEM medium containing 5% fetal bovine serum was added. The cells were then mixed with the medium to prepare a cell suspension and counted on a cell counting plate.
# Cell plating: A determined number of cells were taken from the cell suspension, diluted with phenol red-free DMEM medium containing 5% fetal bovine serum, and plated at a concentration of 10,000 cells per well (100 µL medium) in a 96-well plate. The plate was then incubated at 37 °C and 5% CO2 for 24 h.
# Cell transfection: Fresh phenol red-free DMEM medium was taken in a sterile environment, and the previously extracted pFXR-Binding plasmid and PG4.35[luc2P-9XGA4UAS-Hygro] plasmid were added. The mixture was stirred and allowed to stand at 23 °C for 3 min. Then, a 3% amount of transfection reagent was added to the mixture, and it was allowed to stand at 23 °C for 15 min. The mixture was then added to the 96-well plate at a volume of 10 µL per well and incubated at 37 °C in a 5% CO2 environment for 24 h.
# The OA derivatives were prepared as 10 mM DMSO stock solutions and further diluted in a concentration gradient, with 10 µL added to each well. The final concentrations of the derivatives ranged from 10 µM to 0.03 µM, with 7 concentration gradients using […] dilution. The test was set with 3 duplicated wells.
# Antagonism activity test: The firefly-Renilla Dual Fluorescence Assay Kit (Promega, #E2940, Madison, WI, USA) was used to measure the antagonism activity of the OA derivatives. Firstly, the firefly fluorescence reagent was added to the 96-well plate at a volume of 70 µL per well and shaken in darkness for 15 min. Then, the fluorescence intensity was measured at a wavelength of 645 ± 30 nm in a microplate reader (BioTek, Winooski, VT, USA). Next, the volume of Renilla reagent was added to the 96-well plate at a volume of 70 µL per well and shaken in darkness for 15 min. The fluorescence intensity was then measured at a wavelength of 525 ± 20 nm.
# Data processing: The fluorescence data of firefly were divided by the fluorescence data of Renilla to remove errors, and the antagonism efficiency was calculated using the following formula: antagonism efficiency (%) = [1 − (FCompds. − FDMSO)/(FCDCA − FDMSO)] × 100%. In the formula, F represents fluorescence intensity. The antagonistic efficiency data were obtained as a concentration–effect curve using Graphpad Prism 8.0 software, and the corresponding IC50 value was calculated.
# HFD mice = test system: HFD mice; set-up: method as in PMID 30635917; details: 100 mg·Kg^−1; cited from earlier work
smiles,measurement,setting,value
"CC[C@H]1[C@@H](O)[C@@H]2[C@H](CC[C@]3(C)[C@@H]([C@H](C)CCC(=O)O)CC[C@@H]23)[C@@]2(C)CC[C@@H](O)C[C@@H]12 [OCA, obeticholic acid, reference compound]",mRNA expression of CTGF,LX-2 cells,decreased
"C[C@@H]1CC[C@]2(C(=O)O[C@@H]3O[C@H](CO)[C@@H](O)[C@H](O)[C@H]3O)CC[C@]3(C)C(=CC[C@@H]4[C@@]5(C)CC[C@H](O)[C@](C)(C(=O)O)[C@@H]5CC[C@]43C)[C@@H]2[C@]1(C)O [IsA, Ilexsaponin A1]",liver TC levels,[1],reducing
same,liver TG,[1],reducing
same,serum TG,[1],reducing
"C[C@H](CCC(=O)O)[C@H]1CC[C@H]2[C@@H]3[C@H](O)C[C@@H]4C[C@H](O)CC[C@]4(C)[C@H]3CC[C@]12C [CDCA, Chenodeoxycholic acid, reference compound]",expression of CYP7A1 (mRNA),FXR downstream genes [2],decrease
"C/C=C1\C(=O)C[C@H]2[C@@H]3CCC4=CC(=O)CC[C@]4(C)[C@H]3CC[C@]12C [guggulsterone, reference compound]",antagonism of metabolic NRs,[3],Most NRs were antagonized
same,mRNA expression of ACTA2,LX-2 cells,significantly decreased
same,mRNA expression of COL1A1,LX-2 cells,significantly decreased
CC(=O)CCCC(=O)OC1CC2C3(C)CCC(O)C(C)(C)C3CCC2(C)C2(C)CCC3(C(=O)O)CCC(C)(C)CC3C12 (stereo not drawn) [Compound 7],CYP7A1 gene expression,FXR downstream genes [4],downregulated; also recorded: significantly reduces
same,G6Pase expression,FXR downstream genes [4],significantly reduces
same,PEPCK expression,FXR downstream genes [4],significantly reduces
"CC1(C)CCC2(C(=O)O)CCC3(C)C(C(OC(=O)CCC(NC(=O)OC(C)(C)C)C(=O)OC4CCCC4)CC4C5(C)CCC(O)C(C)(C)C5CCC43C)C2C1 [Compound 20g, 3β-hydroxy-12β-(4′-((tert-butoxycarbonyl)amide)-5′-cyclopentyloxy-L-glutamate)oxy-13H-olean-28-oic acid]",IC50,FXR,820 ± 110 nM
"CC(C)OC(=O)NC(CCC(=O)OC1CC2C3(C)CCC(O)C(C)(C)C3CCC2(C)C2(C)CCC3(C(=O)O)CCC(C)(C)CC3C12)C(=O)OC(C)(C)C [Compound 19d, 3β-hydroxy-12β-(4′-((isopropoxycarbonyl)amide)-5′-(tert-butoxy)-L-glutamate)oxy-13H-olean-28-oic acid]",IC50,FXR,400 to 500 nM and 470 nM
"C=C(C)[C@@H]1CC[C@]2(C(=O)O)CC[C@]3(C)[C@H](CC[C@@H]4[C@@]5(C)CC[C@H](O)C(C)(C)[C@@H]5CC[C@]43C)[C@@H]12 [BA, Betulinic acid]",liver TC levels,HFD mice,reduce
same,liver TG levels,HFD mice,reduce
